Experiments:
[1] = test system: HL60 (human promyelocytic leukemia) cells; test: Gene expression profiling of tretinoin-treated HL60 cells, LMA RT-PCR amplicons detected on encoded hydrogel particles; format: cell-based; details: for Raw Signal (AU) / Differential Expression: log(tret/DMSO): HL60 cells; for Raw Signal (AU): 1 μmol/l tretinoin, five days; for Normalized Signal: normalized to LUA95, tretinoin-treated HL60 cells; for Differential Expression: log(tret/DMSO): tretinoin vs DMSO
Description: (§1) Gene expression profiling experiment were conducted to detect and quantify the effects of drug treatment on expression of certain target mRNAs in a complex sample using hydrogel particles. Applicants repeated previously reported multiplex ligation-mediated PCR experiments that used Luminex FlexMAP (Luminex, Austin, Tex., USA) optically addressed barcoded microspheres in side by side experiments with hydrogel particles using an endogenous reference gene for quantification. The methods used are described in Peck et al. A Method for High-Throughput Gene Expression Signature Analysis, Genome Biology, 7:R61, 2006; details are set forth in Example 3. Although the Peck et al experiments were done with traditional RT-PCR and hybridization in multiple steps, the experiments are amendable to embodiments of the present methods for one chamber quantitative multiplexed end point PCR.
(§2) HL60 (human promyelocytic leukemia) cells were cultured in the presence of either […] in DMSO or DMSO alone, and quantification was based on comparison of target mRNA expression to the reference gene […]. […] Upstream and downstream probe pairs designed for each of the targets by Peck were used to generate the amplicons. Unique upstream biotin-conjugated primers for each target included a 24 nucleotide bar code sequence for each of the five mRNAs. Applicants designed probes for immobilization on encoded hydrogel particles that were complementary to the 24 nucleotide bar code on each unique upstream primer to enable capture of the amplicons on encoded hydrogel particles. Methods for making the particles are described in Example 3. Each encoded hydrogel particle was made with multiple probe regions directed to each of the five mRNAs (four targets and one reference gene) and a control, respectively.
(§3) Total RNA was isolated from the HL60 cells, reverse-transcribed and amplified using a simple RT-PCR method. In order to compare the sensitivity of the encoded hydrogel particles to the Luminex magnetic particles, the exact protocol described by Peck et al. was followed. There were 39 cycles in which: there was an initial denaturation at 92° C. for 9 minutes, followed by denaturation at 92° C. for 30 s, followed by annealing at 60° C. for 30 s, extension at 72° C. for 30 s for 39 cycles, and a final extension at 72° C. for 5 minutes. After a final denaturation at 95° C. for two minutes hybridization was carried out at 45° C. for 60 minutes. Note that in the preferred embodiments of the present invention the hybridization temperature is from 2-15° C. […] than the primer annealing temperature to optimize specificity. By contrast, the hybridization temperature (45° C.) used by Peck et al. was 15° C. lower than the annealing temperature.
(§4) After hybridization, the respective Luminex and hydrogel particles were rinsed, incubated with streptavidin-phycoerythrin to fluorescently label the primers, rinsed again, and imaged for fluorescence. The fluorescent signals obtained were quantified and normalized against the internal reference (LUA95) after subtracting the background signal from the control region on each particle (CTL).
(§5) Similar to the protocol described in Peck et al., Genome Biology, 7:R61, 2006, HL60 (human promyelocytic leukemia) cells were cultured in RPMI supplemented with 10% fetal bovine serum and antibiotics. Cells were treated with 1 μmol/l tretinoin (all-trans retinoic acid; Sigma-Aldrich, St Louis, Mo., USA) in dimethyl sulfoxide (DMSO; final concentration 0.1%) or DMSO alone for five days. Total RNA was isolated from bulk cultures with TRIzol Reagent (Invitrogen, Carlsbad, Calif., USA), in accordance with the manufacturer's directions. For the classification exercise, microtiter plate cultures were treated with 200 nmol/l tretinoin or DMSO for two days to mimic the submaximal signatures likely to be encountered in a small molecule screen, and were and prepared for mRNA capture by the addition of Lysis Buffer (RNAture, Irvine, Calif., USA). […]

[2] = test system: HL60 (human promyelocytic leukemia) cells; test: Gene expression profiling of tretinoin-treated HL60 cells, LMA RT-PCR amplicons detected on Luminex microspheres; format: cell-based; details: for Raw Signal (AU) / Differential Expression: log(tret/DMSO): HL60 cells; for Raw Signal (AU): 1 μmol/l tretinoin, five days; for Normalized Signal: normalized to LUA95, tretinoin-treated HL60 cells; for Differential Expression: log(tret/DMSO): tretinoin vs DMSO
Description: as §1, §2, §3, §4, §5

[3] = LUA95 (GAPDH3 internal reference, NM_002046)

Structure (SMILES): CC1=C(/C=C/C(C)=C/C=C/C(C)=C/C(=O)O)C(C)(C)CCC1 [tretinoin]
- Raw Signal (AU) ([1]; LUA7 mRNA (NM_000962)): 7.44 AU
- Normalized Signal ([1]; LUA7 mRNA (NM_000962)): 0.084
- Differential Expression: log(tret/DMSO) ([1]; LUA7 mRNA (NM_000962)): 0.486
- Raw Signal (AU) ([1]; LUA27 mRNA (NM_006432)): 14.64 AU
- Normalized Signal ([1]; LUA27 mRNA (NM_006432)): 0.166
- Differential Expression: log(tret/DMSO) ([1]; LUA27 mRNA (NM_006432)): 0.818
- Raw Signal (AU) ([1]; LUA59 mRNA (NM_004095)): 1.14 AU
- Normalized Signal ([1]; LUA59 mRNA (NM_004095)): 0.013
- Differential Expression: log(tret/DMSO) ([1]; LUA59 mRNA (NM_004095)): −0.841
- Raw Signal (AU) ([1]; LUA68 mRNA (NM_003132)): 2.99 AU
- Normalized Signal ([1]; LUA68 mRNA (NM_003132)): 0.034
- Differential Expression: log(tret/DMSO) ([1]; LUA68 mRNA (NM_003132)): −0.822
- Raw Signal (AU) [1, 3]: 88.45 AU
- Raw Signal (AU) ([2]; LUA7 mRNA (NM_000962)): 389.3 AU
- Normalized Signal ([2]; LUA7 mRNA (NM_000962)): 0.222
- Differential Expression: log(tret/DMSO) ([2]; LUA7 mRNA (NM_000962)): 0.785
- Raw Signal (AU) ([2]; LUA27 mRNA (NM_006432)): 775.5 AU
- Normalized Signal ([2]; LUA27 mRNA (NM_006432)): 0.442
- Differential Expression: log(tret/DMSO) ([2]; LUA27 mRNA (NM_006432)): 0.871
- Raw Signal (AU) ([2]; LUA59 mRNA (NM_004095)): 100.3 AU
- Normalized Signal ([2]; LUA59 mRNA (NM_004095)): 0.057
- Differential Expression: log(tret/DMSO) ([2]; LUA59 mRNA (NM_004095)): −0.576
- Raw Signal (AU) ([2]; LUA68 mRNA (NM_003132)): 178.0 AU
- Normalized Signal ([2]; LUA68 mRNA (NM_003132)): 0.101
- Differential Expression: log(tret/DMSO) ([2]; LUA68 mRNA (NM_003132)): −0.619
- Raw Signal (AU) [2, 3]: 1754.4 AU
